Measured values published in US20230348376A1 (TEIJIN PHARMA LIMITED, priority 2020, published 2023).

Tests used:
[1] = test system: rat oligodendrocyte progenitor cells; test: Promotive activity of rat oligodendrocyte progenitor cell differentiation-2 (immunostaining of MBP); format: cell-based; conditions: Test 2; vitamin D derivative 2 μM, T3 30 nM; 4 days
Method in brief: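 Vitamin D derivatives scored as symbols for promoting differentiation, read out by MBP immunostaining. OPCs taken from supernatant after about 22 h shaking (37 °C, 200 rpm) in separation medium.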

[2] = Evaluation of brain penetration in mice (blood and brain concentration at brain Cmax); format: in vivo, mouse; conditions: 1 mg/kg single oral dose, C57BL/6J mice
Method in brief: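 Male C57BL/6J mice (8 weeks, n=3) dosed orally once at 1 […] mg/kg; plasma and brain collected at 0.25, 0.5, 1, 2, 4 and 8 h. Compound extracted with acetonitrile from brain homogenate and plasma, quantified by LC/MS/MS.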

[3] = test system: rat oligodendrocyte progenitor cells; test: Promotive activity of rat oligodendrocyte progenitor cell differentiation-1 (MBP gene expression, mRNA); format: cell-based; conditions: Rattus norvegicus, Oligodendrocyte progenitor cell, 96 h, read-out: promotive activity at T3 base (MBP gene expression; DMSO 0%, T3 100%), 4 days, MBP/β actin mRNA
Method in brief: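 Primary OPCs from 1-day-old SD rat forebrain, isolated by shaking off mixed glial cultures and seeded at 2×10^3 cells/well in B27/CNTF (10 ng/mL) differentiation medium with compound. MBP mRNA measured by one-step TaqMan real-time PCR and expressed as MBP/β-actin ratio.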

Concentration in blood (mean ± SD) at brain Cmax ([2]; n=3): 580 ± 107 nM
Concentration in brain (mean ± SD) at brain Cmax ([2]; n=3): 595 ± 23 pmol/g
Kp ([2]; male, C57BL/6J, mouse, brain/plasma, po, 1 mg/kg, read-out: Concentration in brain/in blood ratio at brain Cmax): 1.03
Compound: C[C@H](CCN1CCOCC1)[C@H]1CC[C@H]2/C(=C/C=C3C[C@@H](O)C[C@H](O)C3)CCC[C@]12C [Compound D023, (1R,3R)-5-(2-((1R,3aS,7aR,E)-7a-methyl-1-((R)-4-morpholinobutan-2-yl)octahydro-4H-inden-4-ylidene)ethylidene)cyclohexane-1,3-diol]
Mean (number of MBP-positive cells/number of Hoechst33342-positive cells) [1]: 0.36
activation at 1 µM [3]: ≥ 20%
